IC50 data for 12 molecules are collected here from US20260022142A1, “MACROCYCLIC IMMUNOMODULATORS” (Bristol-Myers Squibb Company, priority 2022, published 2026).

Numbered stars: 1 amine (or outer) side, 2 acyl side, 3 side chain; on linkers, the order of the positions; unused ones are H or OH. Bridge positions count the residues as written; N and C are the ends. Square brackets hold non-standard residues; d marks the D form. Peptide text beside a SMILES is read from it. * marks the point of attachment. ξ: configuration not given here. X3 = CC(C)(F)C(=N)NCCC[C@H](N[*:1])C(=O)[*:2]; X7 = N=C(NCCC[C@H](N[*:1])C(=O)[*:2])C1CC1; Bip = N[C@@H](Cc1ccc(-c2ccccc2)cc1)C(=O)O; Phe(3-Me) = Cc1cccc(C[C@H](N)C(=O)O)c1; Cyclopropanecarbonyl = O=C(C1CC1)*; Lys(Me2) = CN(C)CCCC[C@H](N)C(=O)O; hArg = N=C(N)NCCCC[C@H](N)C(=O)O; Cha = N[C@@H](CC1CCCCC1)C(=O)O; Cit = NC(=O)NCCC[C@H](N)C(=O)O; Thr(3ξ) = CC(O)[C@H](N)C(=O)O; 12Ado = NCCCCCCCCCCCC(=O)O; hSer = N[C@@H](CCO)C(=O)O; Carboxymethyl = O=C(O)C*; Orn = NCCC[C@H](N)C(=O)O; Aun = NCCCCCCCCCCC(=O)O; Dab = NCC[C@H](N)C(=O)O

The experiment deals with T1, PD-1/PD-L1 interaction (PE-labeled human PD-L1-Ig binding to Jurkat cell line over-expressing human PD-1) (Homo sapiens, UniProt Q15116).
T1 construct: expressed in transfected cells; host or cells: Jurkat
T1 sequence (Q15116 25-288): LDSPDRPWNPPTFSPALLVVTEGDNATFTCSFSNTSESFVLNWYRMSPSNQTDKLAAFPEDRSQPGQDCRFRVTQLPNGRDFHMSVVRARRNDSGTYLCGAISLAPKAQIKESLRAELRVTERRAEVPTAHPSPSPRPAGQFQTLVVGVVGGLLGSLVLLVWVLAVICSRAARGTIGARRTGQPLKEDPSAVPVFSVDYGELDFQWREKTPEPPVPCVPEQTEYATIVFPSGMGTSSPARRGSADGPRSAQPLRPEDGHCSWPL
Nature of the experiment: Jurkat-PD-1 Cell Binding High-Content Screening Assay (CBA). The experiment is classed as cell-based. The note with it: Jurkat cell line over-expressing human PD-1; PE-labeled PD-L1-Ig 20 nM final; read-out: Jurkat hPD1-PDL1 IC50. The method, boiled down:
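Read-out is high-content imaging of cell-bound phycoerythrin-tagged PD-L1-Ig on fixed, Hoechst-counterstained Jurkat cells that over-express human PD-1. Compound exposure lasts 2 h at 37° C before the labeled ligand (20 nM final) is added for a further hour.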
For the molecule `Cc1cccc(C[C@@H]2NC(=O)[C@H](CC(=O)O)NC(=O)[C@H](Cc3ccc(OCC(=O)O)cc3)NC(=O)[C@H](CCCCNC(=N)N)NC(=O)CSC[C@@H](C(=O)N[C@@H](CCN)C(=O)N[C@@H](CO)C(=O)NCCCCCCCCCCCC(=O)O)NC(=O)[C@H](C(C)O)NC(=O)[C@H](C(C)C)NC(=O)[C@H](CC3CCCCC3)NC(=O)[C@H](CCN)NC(=O)[C@@H](CC(C)C)NC(=O)[C@H](CCCN)NC(=O)[C@H](CCCNC(N)=O)NC(=O)[C@H](Cc3ccc(-c4ccccc4)cc3)NC(=O)[C@H](C(C)C)NC2=O)c1` (stereo partly drawn) [Compound 3570] ({CH2CO}-[hArg]Y(Carboxymethyl)D[Phe(3-Me)]V[Bip][Cit][Orn][dL][Dab][Cha]V[Thr(3ξ)]C[Dab]S[12Ado]-OH; thioether N-14), the IC50 (usually the concentration needed to halve the response being measured) was determined as 16.3 nM. Then `Cc1cccc(C[C@@H]2NC(=O)[C@H](CC(=O)O)NC(=O)[C@H](Cc3ccc(OCC(=O)O)cc3)NC(=O)[C@H](CCCCNC(=N)N)NC(=O)CSC[C@@H](C(=O)N[C@@H](CCN)C(=O)N[C@@H](CO)C(=O)NCCCCCCCCCCCC(=O)O)NC(=O)[C@H](CO)NC(=O)[C@H](C(C)C)NC(=O)[C@H](CC3CCCCC3)NC(=O)[C@H](CCN)NC(=O)[C@@H](CC(C)C)NC(=O)[C@H](CCCN)NC(=O)[C@H](CCCNC(=N)N)NC(=O)[C@H](Cc3ccc(-c4ccccc4)cc3)NC(=O)[C@H](C(C)C)NC2=O)c1` [Compound 3571] ({CH2CO}-[hArg]Y(Carboxymethyl)D[Phe(3-Me)]V[Bip]R[Orn][dL][Dab][Cha]VSC[Dab]S[12Ado]-OH; thioether N-14), with 16.9 nM; and `Cc1cccc(C[C@@H]2NC(=O)[C@H](CC(=O)O)NC(=O)[C@H](Cc3ccc(OCC(=O)O)cc3)NC(=O)[C@H](CCCNC(=O)C3CC3)NC(=O)CSC[C@@H](C(=O)N[C@@H](CCCN)C(=O)N[C@@H](CO)C(=O)NCCCCCCCCCCCC(=O)O)NC(=O)[C@H](C(C)O)NC(=O)[C@H](C(C)C)NC(=O)[C@H](CC3CCCCC3)NC(=O)[C@H](CCN)NC(=O)[C@@H](CC(C)C)NC(=O)[C@H](CCCN)NC(=O)[C@H](CCCNC(=N)N)NC(=O)[C@H](Cc3ccc(-c4ccccc4)cc3)NC(=O)[C@H](C(C)C)NC2=O)c1` (stereo partly drawn) [Compound 3572] ({CH2CO}-[Orn](Cyclopropanecarbonyl)Y(Carboxymethyl)D[Phe(3-Me)]V[Bip]R[Orn][dL][Dab][Cha]V[Thr(3ξ)]C[Orn]S[12Ado]-OH; thioether N-14), with 26.1 nM. With `Cc1cccc(C[C@@H]2NC(=O)[C@H](CC(=O)O)NC(=O)[C@H](Cc3ccc(OCC(=O)O)cc3)NC(=O)[C@H](CCCCNC(=N)N)NC(=O)CSC[C@@H](C(=O)N[C@@H](CCCN)C(=O)N[C@@H](CO)C(=O)NCCCCCCCCCCCC(=O)O)NC(=O)[C@H](C(C)O)NC(=O)[C@H](CCO)NC(=O)[C@H](CC3CCCCC3)NC(=O)[C@H](CCN)NC(=O)[C@@H](CC(C)C)NC(=O)[C@H](CCCN)NC(=O)[C@H](CCCNC(=N)N)NC(=O)[C@H](Cc3ccc(-c4ccccc4)cc3)NC(=O)[C@H](C(C)C)NC2=O)c1` (stereo partly drawn) [Compound 3574] ({CH2CO}-[hArg]Y(Carboxymethyl)D[Phe(3-Me)]V[Bip]R[Orn][dL][Dab][Cha][hSer][Thr(3ξ)]C[Orn]S[12Ado]-OH; thioether N-14), the IC50 was 27 nM.

Consider `Cc1cccc(C[C@@H]2NC(=O)[C@H](CC(=O)O)NC(=O)[C@H](Cc3ccc(OCC(=O)O)cc3)NC(=O)[C@H](CCCCNC(=N)N)NC(=O)CSC[C@@H](C(=O)N[C@@H](CCCN)C(=O)N[C@@H](CO)C(=O)NCCCCCCCCCCCC(=O)O)NC(=O)[C@H](C(C)O)NC(=O)[C@H](C(C)C)NC(=O)[C@H](CC3CCCCC3)NC(=O)[C@H](CCN)NC(=O)[C@@H](CC(C)C)NC(=O)[C@H](CCCN)NC(=O)[C@H](CCCNC(=N)N)NC(=O)[C@H](Cc3ccc(-c4ccccc4)cc3)NC(=O)[C@H](C(C)C)NC2=O)c1` (stereo partly drawn) [Compound 3575] ({CH2CO}-[hArg]Y(Carboxymethyl)D[Phe(3-Me)]V[Bip]R[Orn][dL][Dab][Cha]V[Thr(3ξ)]C[Orn]S[12Ado]-OH; thioether N-14), for which the IC50 was determined as 32.3 nM.

As for `Cc1cccc(C[C@@H]2NC(=O)[C@H](CC(=O)O)NC(=O)[C@H](Cc3ccc(OCC(=O)O)cc3)NC(=O)[C@H](CCCCNC(=N)N)NC(=O)CSC[C@@H](C(=O)N[C@@H](CCCN)C(=O)N[C@@H](CO)C(=O)NCCCCCCCCCCCC(=O)O)NC(=O)[C@H](CO)NC(=O)[C@H](C(C)C)NC(=O)[C@H](CC3CCCCC3)NC(=O)[C@H](CCN)NC(=O)[C@@H](CC(C)C)NC(=O)[C@H](CCCN)NC(=O)[C@H](CCCNC(=N)N)NC(=O)[C@H](Cc3ccc(-c4ccccc4)cc3)NC(=O)[C@H](C(C)C)NC2=O)c1` [Compound 3576] ({CH2CO}-[hArg]Y(Carboxymethyl)D[Phe(3-Me)]V[Bip]R[Orn][dL][Dab][Cha]VSC[Orn]S[12Ado]-OH; thioether N-14), the IC50 is 17.3 nM. The result for `CC(=O)NCCCC[C@@H]1NC(=O)CSC[C@@H](C(=O)N[C@@H](CCCN)C(=O)N[C@@H](CO)C(=O)NCCCCCCCCCCCC(=O)O)NC(=O)[C@H](CO)NC(=O)[C@H](C(C)C)NC(=O)[C@H](CC2CCCCC2)NC(=O)[C@H](CCCNC(=N)N)NC(=O)[C@@H](CC(C)C)NC(=O)[C@H](CCCN)NC(=O)[C@H](CCCNC(=N)N)NC(=O)[C@H](Cc2ccc(-c3ccccc3)cc2)NC(=O)[C@H](C(C)C)NC(=O)[C@H](Cc2cccc(C)c2)NC(=O)[C@H](CC(=O)O)NC(=O)[C@H](Cc2ccc(OCC(=O)O)cc2)NC1=O` [Compound 3577] ({CH2CO}-K(Ac)Y(Carboxymethyl)D[Phe(3-Me)]V[Bip]R[Orn][dL]R[Cha]VSC[Orn]S[12Ado]-OH; thioether N-14) reads 31.1 nM; that for `Cc1cccc(C[C@@H]2NC(=O)[C@H](CC(=O)O)NC(=O)[C@H](Cc3ccc(OCC(=O)O)cc3)NC(=O)[C@H](CCCCNC(=N)N)NC(=O)CSC[C@@H](C(=O)N[C@@H](CCCN)C(=O)N[C@@H](CO)C(=O)NCCCCCCCCCCCC(=O)O)NC(=O)[C@H](CO)NC(=O)[C@H](C(C)C)NC(=O)[C@H](CC3CCCCC3)NC(=O)[C@H](CCN)NC(=O)[C@@H](CC(C)C)NC(=O)[C@H](CCCNC(=N)N)NC(=O)[C@H](CCCNC(=N)C3CC3)NC(=O)[C@H](Cc3ccc(-c4ccccc4)cc3)NC(=O)[C@H](C(C)C)NC2=O)c1` [Compound 3578] ({CH2CO}-[hArg]Y(Carboxymethyl)D[Phe(3-Me)]V[Bip][X7]R[dL][Dab][Cha]VSC[Orn]S[12Ado]-OH; thioether N-14), 21.5 nM; that for `Cc1cccc(C[C@@H]2NC(=O)[C@H](CC(=O)O)NC(=O)[C@H](Cc3ccc(OCC(=O)O)cc3)NC(=O)[C@H](CCCCNC(=N)N)NC(=O)CSC[C@@H](C(=O)N[C@@H](CCN)C(=O)NCCCCCCCCCCC(=O)O)NC(=O)[C@H](C(C)O)NC(=O)[C@H](C(C)C)NC(=O)[C@H](CC3CCCCC3)NC(=O)[C@H](CCN)NC(=O)[C@@H](CC(C)C)NC(=O)[C@H](CCCN)NC(=O)[C@H](CCCNC(=N)C(C)(C)F)NC(=O)[C@H](Cc3ccc(-c4ccccc4)cc3)NC(=O)[C@H](Cc3ccc(O)cc3)NC2=O)c1` (stereo partly drawn) [Compound 3579] ({CH2CO}-[hArg]Y(Carboxymethyl)D[Phe(3-Me)]Y[Bip][X3][Orn][dL][Dab][Cha]V[Thr(3ξ)]C[Dab][Aun]-OH; thioether N-14), 18.2 nM. Consider `CC(=O)NCCCC[C@@H]1NC(=O)[C@H](Cc2ccc(-c3ccccc3)cc2)NC(=O)[C@H](C(C)C)NC(=O)[C@H](Cc2cccc(C)c2)NC(=O)[C@H](CC(=O)O)NC(=O)[C@H](Cc2ccc(OCC(=O)O)cc2)NC(=O)[C@H](CCCCNC(=N)N)NC(=O)CSC[C@@H](C(=O)N[C@@H](CCN)C(=O)NCCCCCCCCCCC(=O)O)NC(=O)[C@H](C(C)O)NC(=O)[C@H](C(C)C)NC(=O)[C@H](CC2CCCCC2)NC(=O)[C@H](CCN)NC(=O)[C@@H](CC(C)C)NC(=O)[C@H](CCCN)NC1=O` (stereo partly drawn) [Compound 3580] ({CH2CO}-[hArg]Y(Carboxymethyl)D[Phe(3-Me)]V[Bip]K(Ac)[Orn][dL][Dab][Cha]V[Thr(3ξ)]C[Dab][Aun]-OH; thioether N-14), for which the IC50 came out at 16.8 nM.

For the molecule `Cc1cccc(C[C@@H]2NC(=O)[C@H](CC(=O)O)NC(=O)[C@H](Cc3ccc(OCC(=O)O)cc3)NC(=O)[C@H](CCCCNC(=N)N)NC(=O)CSC[C@@H](C(=O)N[C@@H](CCN)C(=O)NCCCCCCCCCCC(=O)O)NC(=O)[C@H](C(C)O)NC(=O)[C@H](C(C)C)NC(=O)[C@H](CC3CCCCC3)NC(=O)[C@H](CCN)NC(=O)[C@@H](CC(C)C)NC(=O)[C@H](CCCN)NC(=O)[C@H](CCCNC(=O)C3CC3)NC(=O)[C@H](Cc3ccc(-c4ccccc4)cc3)NC(=O)[C@H](Cc3ccc(O)cc3)NC2=O)c1` (stereo partly drawn) [Compound 3581] ({CH2CO}-[hArg]Y(Carboxymethyl)D[Phe(3-Me)]Y[Bip][Orn](Cyclopropanecarbonyl)[Orn][dL][Dab][Cha]V[Thr(3ξ)]C[Dab][Aun]-OH; thioether N-14), the IC50 worked out at 16.2 nM.

Take `Cc1cccc(C[C@@H]2NC(=O)[C@H](CC(=O)O)NC(=O)[C@H](Cc3ccc(OCC(=O)O)cc3)NC(=O)[C@H](CCCCN(C)C)NC(=O)CSC[C@@H](C(=O)N[C@@H](CCCN)C(=O)N[C@@H](CO)C(=O)NCCCCCCCCCCCC(=O)O)NC(=O)[C@H](C(C)O)NC(=O)[C@H](CCO)NC(=O)[C@H](CC3CCCCC3)NC(=O)[C@H](CCN)NC(=O)[C@@H](CC(C)C)NC(=O)[C@H](CCCN)NC(=O)[C@H](CCCNC(N)=O)NC(=O)[C@H](Cc3ccc(-c4ccccc4)cc3)NC(=O)[C@H](C(C)C)NC2=O)c1` (stereo partly drawn) [Compound 3582] ({CH2CO}-[Lys(Me2)]Y(Carboxymethyl)D[Phe(3-Me)]V[Bip][Cit][Orn][dL][Dab][Cha][hSer][Thr(3ξ)]C[Orn]S[12Ado]-OH; thioether N-14): the IC50 amounted to 71 nM.
